Experiments:
[1] = target: T1, Human GPR120 short form (Homo sapiens, UniProt Q5NUL3); test: Human GPR120 calcium flux assay, Procedure Calcium A; type: cell-based; details: HEK-293 cells, FLIPR, 2500 cells/well; read-out: GPR120 Ca2+ Assay A EC50
T1 construct: expressed in transfected cells
T1 sequence (Q5NUL3 1-361): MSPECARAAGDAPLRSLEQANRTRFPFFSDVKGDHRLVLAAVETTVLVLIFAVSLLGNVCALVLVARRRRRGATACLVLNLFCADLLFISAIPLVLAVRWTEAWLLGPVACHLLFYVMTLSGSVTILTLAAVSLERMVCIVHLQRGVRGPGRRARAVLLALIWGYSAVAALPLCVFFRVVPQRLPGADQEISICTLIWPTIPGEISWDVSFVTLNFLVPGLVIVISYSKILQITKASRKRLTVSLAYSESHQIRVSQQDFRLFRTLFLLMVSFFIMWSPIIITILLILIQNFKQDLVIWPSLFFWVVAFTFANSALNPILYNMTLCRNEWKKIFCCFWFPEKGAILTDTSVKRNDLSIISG
Description: These cells are first loaded with the Ca^+2 sensitive dye, Fluo-4 NR. Upon stimulation, intracellular released Ca^+2 can bind to the dye and alter its fluorescence intensity. This increase in fluorescence signal, and thus the flux in intracellular [Ca^2+], is detected and quantitated by fluorescence imaging using a FLIPR reader. The effect of the agonist is measured as a function of concentration and used to calculate an EC50 based upon a response curve.
In this procedure 2500 cells/well were employed.
A Human GPR120 clone (Genbank accession number NM_001195755.1) was placed into the pcDNA3.1 mammalian expression vector carrying the neomycin resistance gene. A stable mammalian cell was generated by placing the above clone into a HEK293 background. […] Cells were split 2 times a week to keep the cells in the log-phase growth.
In preparation for the assay, HEK cells stably transfected with Human GPR120 (2.5K cells per well in 25 uL growth medium) were seeded into 384-well plates and then incubated overnight (37° C., 5% CO2). The next day, the media was changed to 20 μL assay buffer and the cell starved for 1 h at 37° C. The dye loading solution (2× dye) was prepared using 10 mL assay buffer, 100 μL of 250 mM probenecid, 1 bottle of Component A, and 20 μl of dye in DMSO. Twenty μL of the 2× dye loading buffer was then added to each well. The plates were incubated at 37° C. for 30 min, then at room temperature for an additional 15 minutes, before performing the assay on FLIPR.
The assay was performed on a FLIPR plate reader using the following parameters. Baseline was read for 10 seconds at 1 sec intervals. The program was set to transfer 10 μL of ligand from compound plate to cell plate after baseline reading. Aspiration was executed at: 10 μL/sec speed, 4.6 μL height; Dispensing was executed at: 30 μL/sec speed, 45 μL height. After compound addition, each well was read for 300 sec, with measurements collected at 1 sec intervals.
The kinetic data from the FLIPR was based upon a 5 minute window for data collection. The fluorescence of each sample well was used for individual calculations of a normalized RFU value, which was defined as maximum response minus the minimum response. […] The Fitting Equation was: Y=Bottom+(Top-Bottom)/(1+10^((Log EC50−X)*HillSlope)), where X is the log of the concentration and Y is the response.

[2] = target: T2, short form of the GPR120 receptor (Homo sapiens, UniProt Q5NUL3); test: Human GPR120 DiscoveRx PathHunter beta-arrestin assay, Procedure β-arrestin B; type: cell-based; details: PathHunter CHO-K1 GPR120S β-Arrestin cells, 5000 cells/well; read-out: hGPR120 β-arrestin B EC50
T2 construct: host or cells: PathHunter CHO-K1 GPR120S β-Arrestin Cell Line
T2 sequence (Q5NUL3 1-361): T1 sequence (Q5NUL3 1-361)
Source text: The binding of an agonist (medium/long chain fatty acids or small molecule agonists) to the G-protein-coupled receptor GPR120 activates phospholipase C, leading to release of intracellular Ca^+2 through the generation of inositol 1,4,5-trisphosphate (InsP3 or IP3). GPR120 activation can also trigger intracellular signaling via recruitment of Beta-Arrestin. In the present method, agonist-induced activation of the human GPR120 receptor is monitored through the use of PathHunter CHO-K1 GPR120 Beta-Arrestin Cell Line engineered by DiscoveRx, as detailed below. The cell lines are designed to co-express both the ProLink/Enzyme Donor (PK)-tagged GPCR and the Enzyme […] (EA)-tagged Beta-Arrestin fusion proteins. Upon GPR120 receptor stimulation/activation, the EA-tagged Beta-Arrestin portion is translocated to the tagged receptor, where the two enzyme fragments are brought within close proximity. Under these conditions, these fragments can interact and form an active Beta-gal enzyme complex through Enzyme Fragment Complementation (EFC). This active Beta-gal complex can enzymatically hydrolyse the substrate to produce a detectable light signal; therefore, activation as a function of agonist concentration can be expressed as an EC50 value to determine relative compound activities. This in vitro assay therefore serves to assess compound agonist activity of the GPR120.
In Procedure β-arrestin B the cells used were PathHunter CHO-K1 GPR120S β-Arrestin Cell Line, expressing the short form of the GPR120 receptor (Accession #NM 181745), with 5000 cells/well.
The selected CHO-K1 GPR120 β-Arrestin cells were cultured in Ham's F12 media supplemented with 10% fetal bovine serum (FBS), 1% Glutamine, 1×p/s, 800 μg/mL G418 and 300 μg/mL Hygromycin B (for selection). Cell stocks were maintained and grown in a sub-confluent state using standard cell culture procedures. The day before the experiment, the cells were harvested with non-enzymatic cell dissociation buffer and re-suspended in complete growth media at the desired concentration. A Corning 384-plate was then seeded with the proper number of cells in a volume of 25 μL, per well. The seeded plates were incubated overnight at 37° C.
On the day of the experiment, the Assay Buffer containing (a) HBSS with Ca^++ and Mg^++, (b) 20 mM HEPES, and (c) 0.1% BSA stabilizer (pH 7.4) was prepared. The growth medium was gently removed from the cell plates and 20 μL of Assay Buffer added to each well. The plate was then incubated at 37° C. for 60 min. Test compounds were serially diluted in Assay Buffer to desired concentrations (more particularly to one or more of the following μM concentrations: 25, 12.5, 6.25, 3.125, 1.5625, 0.78125, 0.390625, 0.1953125, 0.09765625, 0.048828125, 0.024414063, 0.012207031). Five μL of compound dilution was then added to each well and the plate incubated at 37° C. for 90 min. The detection reagents were prepared according to the manufacture's instruction. Twelve μL of the detection reagents were added to each well and the plate incubated at room temperature for 60 min.
The plates were read on an EnVision instrument, using Protocol name: Luminescence, Plate type: 384 Costar, Measurement height: 3 mm, Measurement time: 1 s, Aperture: 384 Plate aperture. The % activity relative to the positive control was calculated using the following equation:
The % Activity values were plotted versus the concentration of test compound and fitted to a sigmoidal dose-response curve with a Hill slope=1 (fixed value) using nonlinear regression with GraphPad Prism 5.0 to calculate the EC50 values. The Fitting Equation was: Y=Bottom+(Top-Bottom)/(1+10^((Log EC50−X)*HillSlope)), where X is the log of the concentration and Y is the response.

[3] = test system: C57bl/6J Mice; test: GPR120 C57bl6 mouse IPGTT; type: in vivo; details: dosed 30 min prior to glucose IP 1.5 g/kg
Description: (§1) Male, C57bl/6J Mice were ordered in at 8 weeks of age from Jackson Labs. Individual mice weighed anywhere in the range of 25-30 grams on study day. The mice were fasted, with removal of food occurring at 7 am on the morning of the study. Animals were moved into the room at 10:00 am, to give them time to acclimate. Glucose (insulin syringes) was drawn up either the night before or the morning of the study. Glucose was dosed (IP) at 1.5 g/kg at 7.5 ml/kg (20% glucose straight TEKNOVA, 250 ml sterile bottle w/ catalogue number G0525). Test compounds were kept spinning and were only drawn into the syringes prior to study commencement. Animals were bled via tail snip to determine basal glucose levels prior to dosing of treatments. An Ascensia BREEZE Blood Glucose Monitoring System by Bayer (using unique 10-test disks) was used for determining glucose levels. The bleeds started at approximately 12:45 pm and dosing started, at 1-minute intervals, immediately after. All groups were dosed 30 minutes prior to glucose administration at a dose volume of 10 ml/kg (the dose volume was calculated separately for each individual animal). Thirty minutes after the first dose animals were bled again for a second baseline, or T=0, and immediately dosed with glucose via an i.p. injection. The exact dose volume for glucose was also calculated separately for each individual animal. Glucose measurements were taken at −30 min prior to compound dose, at t=0 (immediately prior to glucose dose), and at 15, 30, 45, 60, 90 min post glucose dose.
(§2) Glucose values were entered into an Excel sheet and graphed in GraphPad Prism. The following were calculated from Prism: Change from −30 to 0 BSLN Glucose, Raw Glucose AUC −30 to 90 min, Delta Glucose AUC −30 to 90 min, Raw Glucose AUC 0 to 90 min, Delta Glucose AUC 0 to 90 min.

[4] = test system: C57b16 mouse; test: C57b16 mouse OGTT; type: in vivo; details: dosed 30 min prior to glucose PO 3 g/kg
Description: as §1, §2
The assay design is the same as that described above for the C57b16 mouse IPGTT. The difference is that glucose was dosed PO at 3 g/kg, 7.5 ml/kg of 40% glucose.

SMILES | EC50 [1] [nM] | EC50 [2] [nM] | also measured
CC(C)Oc1cc(C(F)(F)F)sc1COc1c(F)cc(CCC(=O)O)cc1F [Cpd 16, 3-(3,5-Difluoro-4-{[3-(1-methylethoxy)-5-(trifluoromethyl)thiophen-2-yl]methoxy}phenyl)propanoic acid] | 382 | 1510 | –
COc1ccc(-c2csc(C(F)(F)F)c2COc2c(F)cc(CCCO)cc2F)cn1 [Cpd 38, 3-(3,5-difluoro-4-((4-(6-methoxypyridin-3-yl)-2-(trifluoromethyl)thiophen-3-yl)methoxy)phenyl)propan-1-ol] | – | – | C57 IPGTT 3 mg/kg ([3]; 3 mg/kg): −9; C57 OGTT 3 mg/kg [4]: −44
CCc1ccc(-c2nsc(C(F)(F)F)c2COc2c(F)cc(CCC(=O)O)cc2F)cc1 [Cpd 70, 3-(4-[[3-(4-ethylphenyl)-5-(trifluoromethyl)-1,2-thiazol-4-yl]methoxy]-3,5-difluorophenyl)propanoic acid] | – | – | C57 IPGTT 30 mg/kg ([3]; 30 mg/kg): −88
O=C(O)CCc1cc(F)c(OCc2c(-c3ccc(Cl)cc3)nsc2C(F)(F)F)c(F)c1 [Cpd 79, 3-(4-[[3-(4-chlorophenyl)-5-(trifluoromethyl)-1,2-thiazol-4-yl]methoxy]-3,5-difluorophenyl)propanoic acid] | – | – | C57 IPGTT 10 mg/kg [3]: −60
OCCCc1ccc(OCc2c(Cl)nsc2-c2ccc(Cl)cc2)c(F)c1F [Cpd 102, 3-(4-((3-chloro-5-(4-chlorophenyl)isothiazol-4-yl)methoxy)-2,3-difluorophenyl)propan-1-ol] | – | – | C57 OGTT 3 mg/kg [4]: −32
O=C(O)CCc1ccc(OCc2c(-c3ccc(Cl)cc3)nsc2C(F)(F)F)c(F)c1F [Cpd 106, 3-(4-[[3-(4-chlorophenyl)-5-(trifluoromethyl)-1,2-thiazol-4-yl]methoxy]-2,3-difluorophenyl)propanoic acid] | – | – | C57 IPGTT 10 mg/kg [3]: −34
Cc1ccc(-c2snc(Cl)c2COc2c(F)cc(CCC(=O)O)c(F)c2F)c(F)c1 [Cpd 107, 3-(4-{[3-Chloro-5-(2-fluoro-4-methylphenyl)isothiazol-4-yl]methoxy}-2,3,5-trifluorophenyl)propanoic acid] | 89 | 118 | –

Second part, led by results:

EC50 [1] [nM] | EC50 [2] [nM] | SMILES | also measured
107 | 310 | COc1ccc(-c2nsc(C(F)(F)F)c2COc2ccc(CCC(=O)O)c(C)c2C)c(F)c1 [Cpd 120, 3-(4-{[3-(2-Fluoro-4-methoxyphenyl)-5-(trifluoromethyl)isothiazol-4-yl]methoxy}-2,3-dimethylphenyl)propanoic acid] | –
274 | 819 | O=C(O)CCc1ccc(OCc2c(C(F)(F)F)nsc2-c2ccc(Cl)cc2)c(Cl)c1Cl [Cpd 181, 3-(2,3-Dichloro-4-{[5-(4-chlorophenyl)-3-(trifluoromethyl)isothiazol-4-yl]methoxy}phenyl)propanoic acid] | –
323 | – | Cc1ccc(-c2snc(C(C)C)c2COc2c(F)cc(CCC(=O)O)cc2F)c(F)c1 [Cpd 191] | –
405 | 1940 | Cc1c(CCC(=O)O)ccc(OCc2c(C(C)(C)C)nsc2C(F)(F)F)c1C [Cpd 198, 3-(4-{[3-tert-Butyl-5-(trifluoromethyl)isothiazol-4-yl]methoxy}-2,3-dimethylphenyl)propanoic acid] | –
3230 | – | CCc1ccc(-c2cc(C(F)(F)F)sc2COc2ccc(CCC(=O)O)c(C)c2C)cc1 [Cpd 250, 3-(4-{[3-(4-Ethylphenyl)-5-(trifluoromethyl)thiophen-2-yl]methoxy}-2,3-dimethylphenyl)propanoic acid] | –
> 5000 | – | CCc1ccc(-c2nsc(C(F)(F)F)c2COc2c(F)ccc(CC(C)CO)c2F)cc1 (stereo not shown) [Cpd 251, 3-(3-{[3-(4-Ethylphenyl)-5-(trifluoromethyl)isothiazol-4-yl]methoxy}-2,4-difluorophenyl)-2-methylpropan-1-ol] | –
